In ChEMBL document CHEMBL6103589, “Synthesis and evaluation of novel ebselen derivatives as urease inhibitors for combating Helicobacter pylori infections” (Eur J Med Chem, 2025):
The source made the active and inactive calls. The rule behind the calls is not given here.

Tests used:
Helicobacter pylori [1] = assay: Protection against Helicobacter pylori ATCC 43504 infected (MOI 200:1) in human GES1 cell injury model assessed as necrotic cells at 25 uM pre-treated for 2 hrs followed by bacterial infection measured after 6 hrs by Annexin/V-FITC staining based flow cytometry analysis (reference value: 3.92%); assay type: functional; settings: time 8 hrs
Helicobacter pylori [2] = assay: Protection against Helicobacter pylori ATCC 43504 infected (MOI 25:1) in human GES1 cell injury model assessed as early apoptotic cells at 25 uM pre-treated for 2 hrs followed by bacterial infection measured after 6 hrs by Annexin/V-FITC staining based flow cytometry analysis (reference value: 9.89%); assay type: functional; settings: time 8 hrs
Helicobacter pylori [3] = assay: Protection against Helicobacter pylori ATCC 43504 infected (MOI 400:1) in human GES1 cell injury model assessed as early apoptotic cells at 25 uM pre-treated for 2 hrs followed by bacterial infection measured after 6 hrs by Annexin/V-FITC staining based flow cytometry analysis (reference value: 42.41 %); assay type: functional; settings: time 8 hrs
[4] = Stability of the compound in simulated gastric fluid; assay type: physicochemical; settings: simulated gi fluid
Helicobacter pylori [5] = assay: Protection against Helicobacter pylori ATCC 43504 infected (MOI 200:1) in human GES1 cell injury model assessed as late apoptotic cells at 25 uM pre-treated for 2 hrs followed by bacterial infection measured after 6 hrs by Annexin/V-FITC staining based flow cytometry analysis (reference value: 6.28%); assay type: functional; settings: time 8 hrs
Helicobacter pylori [6] = assay: Protection against Helicobacter pylori ATCC 43504 infected (MOI 25:1) in human GES1 cell injury model assessed as necrotic cells at 25 uM pre-treated for 2 hrs followed by bacterial infection measured after 6 hrs by Annexin/V-FITC staining based flow cytometry analysis (reference value: 0.66%); assay type: functional; settings: time 8 hrs
GES1 [7] = assay: Induction of DNA damage in human GES1 cells infected (25 to 400:1 MOI) with Helicobacter pylori ATCC 43504 assessed as increase in gammaH2AX levels at 25 to 50 uM by SP8 laser confocal microscopic analysis; assay type: functional, cell-based; settings: dose 25-50 µM
Helicobacter pylori [8] = assay: Protection against Helicobacter pylori ATCC 43504 infected (MOI 50:1) in human GES1 cell injury model assessed as late apoptotic cells at 50 uM pre-treated for 2 hrs followed by bacterial infection measured after 6 hrs by Annexin/V-FITC staining based flow cytometry analysis (reference value: 2.85%); assay type: functional; settings: time 8 hrs
Helicobacter pylori [9] = assay: Protection against Helicobacter pylori ATCC 43504 infected (MOI 400:1) in human GES1 cell injury model assessed as viable cells at 25 uM pre-treated for 2 hrs followed by bacterial infection measured after 6 hrs by Annexin/V-FITC staining based flow cytometry analysis (reference value: 37.61%); assay type: functional; settings: time 8 hrs
[10] = Acute toxicity in BALB/c mouse assessed as pathological abnormality in liver at 1 g/Kg, po single dose administered for 7 days by HE staining based analysis; assay type: organism-based; settings: in vivo, 1000 mg/kg, 168 h, time 7 day
Helicobacter pylori [11] = assay: In vivo protection against Helicobacter pylori ATCC 43504 infected in BALB/c mouse gastric mucosa model assessed as appearance of intact epithelium at high dose administered once a day for 2 weeks by HE staining based analysis; assay type: functional, organism-based
Helicobacter pylori [12] = assay: Protection against Helicobacter pylori ATCC 43504 infected (MOI 100:1) in human GES1 cell injury model assessed as viable cells at 50 uM pre-treated for 2 hrs followed by bacterial infection measured after 6 hrs by Annexin/V-FITC staining based flow cytometry analysis (reference value: 68.36%); assay type: functional; settings: time 8 hrs
Helicobacter pylori [13] = assay: Protection against Helicobacter pylori ATCC 43504 infected (MOI 100:1) in human GES1 cell injury model assessed as necrotic cells at 50 uM pre-treated for 2 hrs followed by bacterial infection measured after 6 hrs by Annexin/V-FITC staining based flow cytometry analysis (reference value: 2.82%); assay type: functional; settings: time 8 hrs
Helicobacter pylori [14] = assay: Protection against Helicobacter pylori ATCC 43504 infected (MOI 50:1) in human GES1 cell injury model assessed as early apoptotic cells at 50 uM pre-treated for 2 hrs followed by bacterial infection measured after 6 hrs by Annexin/V-FITC staining based flow cytometry analysis (reference value: 13.16 %); assay type: functional; settings: time 8 hrs
Helicobacter pylori [15] = assay: In vivo protection against Helicobacter pylori ATCC 43504 infected in BALB/c mouse gastric mucosa model assessed as appearance of intact sub-mucosa at high dose administered once a day for 2 weeks by HE staining based analysis; assay type: functional, organism-based
[16] = Acute toxicity in BALB/c mouse assessed as change in stool consistency at 1 g/Kg, po single dose administered for 7 days; assay type: organism-based; settings: in vivo, 1000 mg/kg, 168 h, time 7 day
Helicobacter pylori [17] = assay: Protection against Helicobacter pylori ATCC 43504 infected (MOI 50:1) in human GES1 cell injury model assessed as viable cells at 25 uM pre-treated for 2 hrs measured after 6 hrs by Annexin/V-FITC staining based flow cytometry analysis (reference value: 81.14%); assay type: functional; settings: time 8 hrs
Helicobacter pylori [18] = assay: Protection against Helicobacter pylori ATCC 43504 infected (MOI 300:1) in human GES1 cell injury model assessed as necrotic cells at 25 uM pre-treated for 2 hrs followed by bacterial infection measured after 6 hrs by Annexin/V-FITC staining based flow cytometry analysis (reference value: 6.05%); assay type: functional; settings: time 8 hrs
[19] = Acute toxicity in BALB/c mouse assessed as pathological abnormality in heart at 1 g/Kg, po single dose administered for 7 days by HE staining based analysis; assay type: organism-based; settings: in vivo, 1000 mg/kg, 168 h, time 7 day
Helicobacter pylori [20] = assay: Protection against Helicobacter pylori ATCC 43504 infected (MOI 100:1) in human GES1 cell injury model assessed as early apoptotic cells at 25 uM pre-treated for 2 hrs followed by bacterial infection measured after 6 hrs by Annexin/V-FITC staining based flow cytometry analysis (reference value: 24.66 %); assay type: functional; settings: time 8 hrs
Helicobacter pylori [21] = assay: In vivo protection against Helicobacter pylori ATCC 43504 infected in BALB/c mouse gastric mucosa model assessed as effect on bleeding at high dose administered once a day for 2 weeks by HE staining based analysis; assay type: functional, organism-based
Helicobacter pylori [22] = assay: Protection against Helicobacter pylori ATCC 43504 infected (MOI 400:1) in human GES1 cell injury model assessed as late apoptotic cells at 25 uM pre-treated for 2 hrs followed by bacterial infection measured after 6 hrs by Annexin/V-FITC staining based flow cytometry analysis (reference value: 13.62%); assay type: functional; settings: time 8 hrs
Helicobacter pylori [23] = assay: Protection against Helicobacter pylori ATCC 43504 infected (MOI 50:1) in human GES1 cell injury model assessed as necrotic cells at 25 uM pre-treated for 2 hrs followed by bacterial infection measured after 6 hrs by Annexin/V-FITC staining based flow cytometry analysis (reference value: 2.85%); assay type: functional; settings: time 8 hrs
GES1 [24] = assay: Induction of DNA damage in human GES1 cells infected (25 to 400:1 MOI) with Helicobacter pylori ATCC 43504 assessed as decrease in gammaH2AX levels by measuring fluorescence intensity at 25 to 50 uM by SP8 laser confocal microscopic analysis; assay type: functional, cell-based; settings: dose 25-50 µM
Helicobacter pylori [25] = assay: Protection against Helicobacter pylori ATCC 43504 infected (MOI 50:1) in human GES1 cell injury model assessed as early apoptotic cells at 25 uM pre-treated for 2 hrs measured after 6 hrs by Annexin/V-FITC staining based flow cytometry analysis (reference value: 13.16 %); assay type: functional; settings: time 8 hrs
GES1 [26] = assay: Induction of DNA damage in human GES1 cells infected (25 to 400:1 MOI) with Helicobacter pylori ATCC 43504 assessed as decrease in gammaH2AX levels at 50 uM by SP8 laser confocal microscopic analysis; assay type: functional, cell-based; settings: time 20.0 min

**Q.** Which results are given for O=C(Oc1n[se]c2ccccc12)c1cccc(F)c1?
**A.** Activity (Helicobacter pylori [1]): 0.12%; Activity (Helicobacter pylori [2]): 1.51%; Activity (Helicobacter pylori [3]): 17.23%; Stability [4]: Stable; Activity (Helicobacter pylori [5]): 0.02%; Activity (Helicobacter pylori [6]): 0.02%; Activity (GES1 [7]): Active; Activity (Helicobacter pylori [8]): 0.02%; Activity (Helicobacter pylori [9]): 82.13%; Activity [10]: Non-toxic; Activity (Helicobacter pylori [11]): Active; Activity (Helicobacter pylori [12]): 96.82%; Activity (Helicobacter pylori [13]): 0.16%; Activity (Helicobacter pylori [14]): 2.91%; Activity (Helicobacter pylori [15]): Active; Activity [16]: Non-toxic; Activity (Helicobacter pylori [17]): 95.32%; Activity (Helicobacter pylori [18]): 0.31%; Activity [19]: Non-toxic; Activity (Helicobacter pylori [20]): 7.64%; Activity (Helicobacter pylori [21]): inactive; Activity (Helicobacter pylori [22]): 0.32%; Activity (Helicobacter pylori [23]): 0.14%; Activity (GES1 [24]): Active; Activity (Helicobacter pylori [25]): 4.49%; Activity (GES1 [26]): Active
